According to ChEMBL document CHEMBL3232938, “Design, synthesis, and biological evaluation of dihydroartemisinin-fluoroquinolone conjugates as a novel type of potential antitubercular agents” (2014):
Converted amounts (≈) assume the structure as drawn.

Tests used:
Assay type in all cases: functional
[1] = tested on: Mycobacterium tuberculosis; test: Antibacterial activity against 1 ug/ml Mycobacterium tuberculosis H37Rv ATCC 27294 assessed as growth inhibition after 7 days by microtiter plate assay; conditions: H37Rv ATCC 27294, 168 h
Salmonella [2] = test: Antibacterial activity against Salmonella assessed as zone of inhibition at 2 ug/ml; conditions: read-out: DIZ
Pseudomonas aeruginosa [3] = test: Antibacterial activity against Pseudomonas aeruginosa assessed as zone of inhibition at 2 ug/ml; conditions: read-out: DIZ
[4] = tested on: Mycobacterium tuberculosis; test: Antibacterial activity against 0.5 ug/ml Mycobacterium tuberculosis H37Rv ATCC 27294 assessed as growth inhibition after 7 days by microtiter plate assay; conditions: H37Rv ATCC 27294, 168 h
Staphylococcus aureus [5] = test: Antibacterial activity against Staphylococcus aureus assessed as growth inhibition after 7 days by microtiter plate assay; conditions: 168 h
Escherichia coli [6] = test: Antibacterial activity against Escherichia coli assessed as growth inhibition after 7 days by microtiter plate assay; conditions: 168 h
Salmonella [7] = test: Antibacterial activity against Salmonella assessed as growth inhibition after 7 days by microtiter plate assay; conditions: 168 h
Pseudomonas aeruginosa [8] = test: Antibacterial activity against Pseudomonas aeruginosa assessed as growth inhibition after 7 days by microtiter plate assay; conditions: 168 h
Escherichia coli [9] = test: Antibacterial activity against duck Escherichia coli assessed as growth inhibition after 7 days by microtiter plate assay; conditions: 168 h
Escherichia coli [10] = test: Antibacterial activity against duck Escherichia coli assessed as zone of inhibition at 2 ug/ml; conditions: read-out: DIZ
Escherichia coli [11] = test: Antibacterial activity against Escherichia coli assessed as zone of inhibition at 2 ug/ml; conditions: read-out: DIZ
Staphylococcus aureus [12] = test: Antibacterial activity against Staphylococcus aureus assessed as zone of inhibition at 2 ug/ml; conditions: read-out: DIZ
[13] = tested on: Mycobacterium tuberculosis; test: Antibacterial activity against drug-sensitive 1 ug/ml Mycobacterium tuberculosis clinical isolate 758 assessed as growth inhibition after 7 days by microtiter plate assay; conditions: isolate 758, 168 h
[14] = tested on: Mycobacterium tuberculosis; test: Antibacterial activity against drug-sensitive 1 ug/ml Mycobacterium tuberculosis clinical isolate 741 assessed as growth inhibition after 7 days by microtiter plate assay; conditions: isolate 741, 168 h
[15] = tested on: Mycobacterium tuberculosis; test: Antibacterial activity against drug-sensitive 1 ug/ml Mycobacterium tuberculosis clinical isolate 753 assessed as growth inhibition after 7 days by microtiter plate assay; conditions: isolate 753, 168 h
[16] = tested on: Mycobacterium tuberculosis; test: Antibacterial activity against drug-sensitive 1 ug/ml Mycobacterium tuberculosis clinical isolate 821 assessed as growth inhibition after 7 days by microtiter plate assay; conditions: isolate 821, 168 h
[17] = tested on: Mycobacterium tuberculosis; test: Antibacterial activity against drug-sensitive 1 ug/ml Mycobacterium tuberculosis clinical isolate 760 assessed as growth inhibition after 7 days by microtiter plate assay; conditions: isolate 760, 168 h
[18] = tested on: Mycobacterium tuberculosis; test: Antibacterial activity against Mycobacterium tuberculosis H37Rv ATCC 27294 assessed as growth inhibition after 7 days by microtiter plate assay; conditions: H37Rv ATCC 27294, 168 h

SMILES	MIC [1] [µM]	zone of inhibition at 2 µg/mL (Salmonella [2]) [mm]	zone of inhibition at 2 µg/mL (Pseudomonas aeruginosa [3]) [mm]	MIC [4] [µM]	MIC (Staphylococcus aureus [5]) [µg/mL]	MIC (Escherichia coli [6]) [µg/mL]	MIC (Salmonella [7]) [µg/mL]	MIC (Pseudomonas aeruginosa [8]) [µg/mL]	MIC (Escherichia coli [9]) [µg/mL]	zone of inhibition at 2 µg/mL (Escherichia coli [10]) [mm]	zone of inhibition at 2 µg/mL (Escherichia coli [11]) [mm]	zone of inhibition at 2 µg/mL (Staphylococcus aureus [12]) [mm]	MIC [13] [µg/mL]	MIC [14] [µg/mL]	MIC [15] [µg/mL]	MIC [16] [µg/mL]	MIC [17] [µg/mL]	MIC [18] [µM]
C[C@H]1[C@@H](OC(=O)CCC(=O)N2CCN(c3cc4c(cc3F)c(=O)c(C(=O)O)cn4-c3ccc(F)cc3)CC2)O[C@@H]2O[C@@]3(C)CC[C@H]4[C@H](C)CC[C@@H]1[C@@]24OO3	> 5.32	< 5	< 5	> 5.32	8 (≈ 10.6 µM)	16 (≈ 21.3 µM)	16 (≈ 21.3 µM)	16 (≈ 21.3 µM)	8 (≈ 10.6 µM)	< 5	< 5	< 5	–	–	–	–	–	–
C[C@H]1[C@@H](OCCN2CCN(c3cc4c(cc3F)c(=O)c(C(=O)O)cn4-c3ccc(F)cc3)CC2)O[C@@H]2O[C@@]3(C)CC[C@H]4[C@H](C)CC[C@@H]1[C@@]24OO3	> 2.87	< 5	< 5	> 2.87	16 (≈ 23 µM)	16 (≈ 23 µM)	16 (≈ 23 µM)	16 (≈ 23 µM)	8 (≈ 11.5 µM)	< 5	< 5	< 5	–	–	–	–	–	–
CCn1cc(C(=O)O)c(=O)c2cc(F)c(N3CCN(C(=O)CCC(=O)O[C@H]4O[C@@H]5O[C@@]6(C)CC[C@H]7[C@H](C)CC[C@@H]([C@H]4C)[C@@]57OO6)CC3)cc21	> 5.83	< 5	< 5	> 5.83	16 (≈ 23.3 µM)	16 (≈ 23.3 µM)	16 (≈ 23.3 µM)	16 (≈ 23.3 µM)	16 (≈ 23.3 µM)	< 5	6	< 5	–	–	–	–	–	–
C[C@H]1[C@@H](OC(=O)CCC(=O)N2CCN(c3cc4c(cc3F)c(=O)c(C(=O)O)cn4C3CC3)CC2)O[C@@H]2O[C@@]3(C)CC[C@H]4[C@H](C)CC[C@@H]1[C@@]24OO3	2.07 (≈ 1.44 µg/mL)	< 5	< 5	2.07 (≈ 1.44 µg/mL)	16 (≈ 22.9 µM)	16 (≈ 22.9 µM)	16 (≈ 22.9 µM)	16 (≈ 22.9 µM)	16 (≈ 22.9 µM)	< 5	9	< 5	–	–	–	–	–	–
C[C@H]1[C@@H](OCCN2CCN(c3cc4c(cc3F)c(=O)c(C(=O)O)cn4C3CC3)CC2)O[C@@H]2O[C@@]3(C)CC[C@H]4[C@H](C)CC[C@@H]1[C@@]24OO3	> 6.23	< 5	< 5	> 6.23	8 (≈ 12.5 µM)	16 (≈ 24.9 µM)	16 (≈ 24.9 µM)	16 (≈ 24.9 µM)	8 (≈ 12.5 µM)	< 5	< 5	< 5	–	–	–	–	–	–
C[C@H]1[C@@H](OCCCNC2CCN(c3c(F)cc4c(=O)c(C(=O)O)cn(C5CC5)c4c3Cl)C2)O[C@@H]2O[C@@]3(C)CC[C@H]4[C@H](C)CC[C@@H]1[C@@]24OO3 (some centres not stated)	0.181 (≈ 0.125 µg/mL)	10	< 5	0.181 (≈ 0.125 µg/mL)	16 (≈ 23.2 µM)	8 (≈ 11.6 µM)	16 (≈ 23.2 µM)	8 (≈ 11.6 µM)	8 (≈ 11.6 µM)	< 5	7	< 5	0.125 (≈ 0.181 µM)	0.125 (≈ 0.181 µM)	0.125 (≈ 0.181 µM)	1 (≈ 1.45 µM)	0.125 (≈ 0.181 µM)	–
C[C@H]1[C@@H](OC(=O)CCC(=O)NC2CCN(c3c(F)cc4c(=O)c(C(=O)O)cn(C5CC5)c4c3Cl)C2)O[C@@H]2O[C@@]3(C)CC[C@H]4[C@H](C)CC[C@@H]1[C@@]24OO3 (some centres not stated)	2.73 (≈ 2 µg/mL)	10	< 5	1.37 (≈ 1 µg/mL)	8 (≈ 10.9 µM)	8 (≈ 10.9 µM)	16 (≈ 21.9 µM)	16 (≈ 21.9 µM)	16 (≈ 21.9 µM)	< 5	9	< 5	–	–	–	–	–	–
CCn1cc(C(=O)O)c(=O)c2cc(F)c(N3CCN(CCO[C@H]4O[C@@H]5O[C@@]6(C)CC[C@H]7[C@H](C)CC[C@@H]([C@H]4C)[C@@]57OO6)CC3)cc21	> 3.18	< 5	< 5	> 3.18	8 (≈ 12.7 µM)	16 (≈ 25.4 µM)	16 (≈ 25.4 µM)	16 (≈ 25.4 µM)	16 (≈ 25.4 µM)	< 5	< 5	< 5	–	–	–	–	–	–
O=C(O)c1cn(C2CC2)c2cc(N3CCNCC3)c(F)cc2c1=O [CIPROFLOXACIN]	–	24	18	–	8 (≈ 24.1 µM)	–	–	–	–	42	–	9	–	–	–	–	–	0.75 (≈ 0.249 µg/mL)
CC1COc2c(N3CCN(C)CC3)c(F)cc3c(=O)c(C(=O)O)cn1c23 (configuration not stated) [OFLOXACIN]	0.69 (≈ 0.249 µg/mL)	–	–	0.69 (≈ 0.249 µg/mL)	–	–	–	–	–	–	–	–	–	–	–	–	–	–
CCn1cc(C(=O)O)c(=O)c2cc(F)c(N3CCN(CCCO[C@H]4O[C@@H]5O[C@@]6(C)CC[C@H]7[C@H](C)CC[C@@H]([C@H]4C)[C@@]57OO6)CC3)cc21	6.21 (≈ 4 µg/mL)	< 5	< 5	6.21 (≈ 4 µg/mL)	8 (≈ 12.4 µM)	16 (≈ 24.9 µM)	16 (≈ 24.9 µM)	16 (≈ 24.9 µM)	8 (≈ 12.4 µM)	< 5	< 5	< 5	–	–	–	–	–	–
C[C@H]1[C@@H](OCCCN2CCN(c3cc4c(cc3F)c(=O)c(C(=O)O)cn4-c3ccc(F)cc3)CC2)O[C@@H]2O[C@@]3(C)CC[C@H]4[C@H](C)CC[C@@H]1[C@@]24OO3	> 5.64	10	< 5	> 5.64	16 (≈ 22.5 µM)	16 (≈ 22.5 µM)	16 (≈ 22.5 µM)	16 (≈ 22.5 µM)	4 (≈ 5.64 µM)	< 5	< 5	< 5	–	–	–	–	–	–
C[C@H]1[C@@H](OCCNC2CCN(c3c(F)cc4c(=O)c(C(=O)O)cn(C5CC5)c4c3Cl)C2)O[C@@H]2O[C@@]3(C)CC[C@H]4[C@H](C)CC[C@@H]1[C@@]24OO3 (some centres not stated)	0.185 (≈ 0.125 µg/mL)	12	< 5	0.092 (≈ 0.0622 µg/mL)	16 (≈ 23.7 µM)	8 (≈ 11.8 µM)	16 (≈ 23.7 µM)	16 (≈ 23.7 µM)	16 (≈ 23.7 µM)	7	8	< 5	0.125 (≈ 0.185 µM)	0.125 (≈ 0.185 µM)	0.125 (≈ 0.185 µM)	0.25 (≈ 0.37 µM)	0.125 (≈ 0.185 µM)	–
C[C@H]1[C@@H](OCCCN2CCN(c3cc4c(cc3F)c(=O)c(C(=O)O)cn4C3CC3)CC2)O[C@@H]2O[C@@]3(C)CC[C@H]4[C@H](C)CC[C@@H]1[C@@]24OO3	> 3.05	< 5	< 5	> 3.05	8 (≈ 12.2 µM)	16 (≈ 24.4 µM)	16 (≈ 24.4 µM)	16 (≈ 24.4 µM)	16 (≈ 24.4 µM)	< 5	< 5	< 5	–	–	–	–	–	–
